IC50 data for 20 compounds are collected here from US11807649B2, “Fused tetracyclic quinazoline derivatives as inhibitors of ErbB2” (EnLiven Therapeutics, Inc., priority 2021, dated 2023).

This assay relates to Ba/F3 ERBB2 YVMA. In words: Cell viability assay (CellTiter Glo), Ba/F3 cells engineered to express ERBB2 YVMA. The format is cell-based. The settings on record: Mus musculus, BaF3, 72 h. The method, then:
Cells were treated with compounds, and cell viability was measured as a metric of kinase inhibition.
BT-474, A431, MDA-MB-175VII, NCI-H1781, MCF7, and Ba/F3 cell lines were tested. The Ba/F3 cell line is IL-3-dependent mouse cell line derived from the C3H mouse strain. Ba/F3 cell lines were engineered to express human ERBB2 or EGFR kinases, rendering the cells IL-3 independent. The lines were generated via retroviral transduction utilizing a Moloney murine leukemia virus (MMLV) promoter, and constructs are stably integrated into the cell genome. The sequences of the ERBB2 and EGFR genes used were NCBI Reference Sequences NM 004448.3 and NM 005228.3, respectively.
BT-474, A431, MDA-MB-175VII, NCI-H1781 and MCF7 cells were grown in the appropriate growth medium as described in Table B2 below, and harvested at 50-80% confluence. BT-474, A431, MDA-MB-175VII, NCI-H1781 and MCF7 cells were counted and seeded at 2,000 or 1,500 cells per well in 384-well tissue culture plates (see Table B2). Similarly, Ba/F3 cell lines engineered to express EGFR, ERBB2, or ERBB2 mutants were grown, harvested, counted and seeded at 3000 cells per well in 96-well plates. A subset of wells contained media only (low control, “LC”).
Table B1 provides the growth media and number of cells seeded per well for the each cell line.
Compounds were dissolved in DMSO and serially diluted. Serially-diluted compound or a DMSO only control (high control, “HC”) was added to the plated cells in each well. Compounds were tested at concentrations of about 10 μM to 0.51 nM, using three-fold dilutions. The final proportion of DMSO never exceeded 0.1%.
Plates were placed in a 37° C., 5% CO2 incubator for 72 hours. Plates were then removed from the incubator and equilibrated for 15 minutes at room temperature. […] of CellTiter Glo reagent (Promega) was added to measure the relative level of metabolically active cells by quantifying intracellular ATP concentrations. Plates were incubated for 30 minutes at room temperature, and luminescence was measured. Percent viability was normalized to a vehicle control only using the following formula: % viability=100×(Lumsample−LumLC)/(LumHC−LumLC). Graphical curves were fitted using a nonlinear regression model with a sigmoidal dose response.

The mark [1] stands for this setting: Ba/F3 cells expressing human ERBB2 YVMA mutant, 72 hours, cell viability, CellTiter Glo, read-out: Ba/F3 ERBB2 YVMA, IC50.
Setting [2] is: read-out: Ba/F3 ERBB2 YVMA, IC50, nM.

Like-named read-outs stand apart in the source and are kept apart here. Bounds are passed on as bounds.

As to `Cc1cc(Nc2ncnc3cc4c(nc23)N2CCN(C(=O)/C=C/CN(C)C)C(CCO4)C2)ccc1Oc1ccn2ncnc2c1` (centres unmarked) [Compound 52, (E)-1-(4-((4-([1,2,4]triazolo[1,5-a]pyridin-7-yloxy)-3-methylphenyl)amino)-7,8,11,12-tetrahydro-6,10-methanopyrimido[4′,5′:5,6]pyrido[3,2-b][1,4,7]oxadiazecin-9(10H)-yl)-4-(dimethylamino)but-2-en-1-one], the IC50 under setting [1] was determined as 109 nM.

Consider `Cc1cc(Nc2ncnc3cc4c(cc23)N2CCN(C(=O)/C=C/CN(C)C)[C@H](CO4)C2)ccc1Oc1ccc2c(c1)ncn2C` [Compound 7, (E)-4-(dimethylamino)-1-((10S)-4-((3-methyl-4-((1-methyl-1H-benzo[d]imidazol-5-yl)oxy)phenyl)amino)-7,8,10,11-tetrahydro-9H-6,10-methano[1,4,7]oxadiazonino[3,2-g]quinazolin-9-yl)but-2-en-1-one], for which the IC50 under setting [1] stood at 78.7 nM.

For `Cc1cc(Nc2ncnc3cc4c(nc23)N2CCN(C(=O)/C=C/CN(C)C)[C@H](CO4)C2)ccc1Oc1ccn2ccnc2c1` [Compound 34, (E)-4-(dimethylamino)-1-((10S)-4-((4-(imidazo[1,2-a]pyridin-7-yloxy)-3-methylphenyl)amino)-7,8,10,11-tetrahydro-9H-6,10-methanopyrimido[4′,5′:5,6]pyrido[3,2-b][1,4,7]oxadiazonin-9-yl)but-2-en-1-one], the IC50 under setting [1] amounted to 7.18 nM.

On to `Cc1cc(Nc2ncnc3cc4c(nc23)N2CCN(C(=O)/C=C/[C@@H](C)N(C)C)[C@H](CO4)C2)ccc1Oc1ccn2ncnc2c1` [Compound 29, (4R,E)-1-((10S)-4-((4-([1,2,4]triazolo[1,5-a]pyridin-7-yloxy)-3-methylphenyl)amino)-7,8,10,11-tetrahydro-9H-6,10-methanopyrimido[4′,5′:5,6]pyrido[3,2-b][1,4,7]oxadiazonin-9-yl)-4-(dimethylamino)pent-2-en-1-one], for which, under setting [1], the IC50 stood at 19.6 nM.

In the case of `Cc1cc(Nc2ncnc3cc4c(nc23)N2CCN(C(=O)/C=C/C3CN(C)C3)[C@H](CO4)C2)ccc1Oc1ccn2ncnc2c1` [Compound 45, (E)-1-((10S)-4-((4-([1,2,4]triazolo[1,5-a]pyridin-7-yloxy)-3-methylphenyl)amino)-7,8,10,11-tetrahydro-9H-6,10-methanopyrimido[4′,5′:5,6]pyrido[3,2-b][1,4,7]oxadiazonin-9-yl)-3-(1-methylazetidin-3-yl)prop-2-en-1-one], the IC50 under setting [1] amounted to 46.7 nM.

Regarding `Cc1cc(Nc2ncnc3cc4c(cc23)N2CCN(C(=O)/C=C/CN(C)C)[C@H](CO4)C2)ccc1Oc1ccn2ncnc2c1` [Compound 9, (E)-1-((10S)-4-((4-([1,2,4]triazolo[1,5-a]pyridin-7-yloxy)-3-methylphenyl)amino)-7,8,10,11-tetrahydro-9H-6,10-methano[1,4,7]oxadiazonino[3,2-g]quinazolin-9-yl)-4-(dimethylamino)but-2-en-1-one], the IC50 under setting [1] is 85.9 nM.

As to `CCOc1cc2ncc(C#N)c(Nc3ccc(OCc4ccccn4)c(Cl)c3)c2cc1NC(=O)/C=C/CN(C)C` [Neratinib, neratinib, reference compound], the IC50 under setting [2] was found to be 3.5 nM.

Take `CC#CC(=O)N1CCN2C[C@@H]1COc1cc3ncnc(Nc4ccc(Oc5ccn6ncnc6c5)c(C)c4)c3cc12` [Compound 17, 1-((10R)-4-((4-([1,2,4]triazolo[1,5-a]pyridin-7-yloxy)-3-methylphenyl)amino)-7,8,10,11-tetrahydro-9H-6,10-methano[1,4,7]oxadiazonino[3,2-g]quinazolin-9-yl)but-2-yn-1-one]: the IC50 under setting [1] is over 500 nM.

Consider `CNC/C=C/C(=O)N1CCN2C[C@H]1COc1cc3ncnc(Nc4cc(C)c(Oc5ccn6ncnc6c5)cc4F)c3nc12` [Compound 49, (E)-1-((10S)-4-((4-([1,2,4]triazolo[1,5-a]pyridin-7-yloxy)-2-fluoro-5-methylphenyl)amino)-7,8,10,11-tetrahydro-9H-6,10-methanopyrimido[4′,5′:5,6]pyrido[3,2-b][1,4,7]oxadiazonin-9-yl)-4-(methylamino)but-2-en-1-one], for which the IC50 under setting [1] came out at 37.6 nM.

As for `Cc1cc(Nc2ncnc3cc4c(nc23)N2CCN(C(=O)/C=C/[C@@H]3CCCN3C)[C@H](CO4)C2)ccc1Oc1ccn2ncnc2c1` [Compound 28, (E)-1-((10S)-4-((4-([1,2,4]triazolo[1,5-a]pyridin-7-yloxy)-3-methylphenyl)amino)-7,8,10,11-tetrahydro-9H-6,10-methanopyrimido[4′,5′:5,6]pyrido[3,2-b][1,4,7]oxadiazonin-9-yl)-3-((S)-1-methylpyrrolidin-2-yl)prop-2-en-1-one], under setting [1], the IC50 is 6.84 nM.

Take `CC#CC(=O)N1CCN2C[C@H]1COc1cc3ncnc(Nc4ccc(Oc5ccc6c(c5)ncn6C)c(C)c4)c3cc12` [Compound 11]: the IC50 under setting [1] came to 37.7 nM.

Turning to `Cc1cc(Nc2ncnc3cc4c(c(F)c23)N2CCN(C(=O)/C=C/CN(C)C)[C@H](CO4)C2)ccc1Oc1ccn2ncnc2c1` [Compound 40, (E)-1-((10S)-4-((4-([1,2,4]triazolo[1,5-a]pyridin-7-yloxy)-3-methylphenyl)amino)-5-fluoro-7,8,10,11-tetrahydro-9H-6,10-methano[1,4,7]oxadiazonino[3,2-g]quinazolin-9-yl)-4-(dimethylamino)but-2-en-1-one], the IC50 under setting [1] came out at 29.4 nM.

For the compound `Cc1cc(Nc2ncnc3cc4c(nc23)N2CCN(C(=O)/C=C/CN(C)C)[C@H](CO4)C2)ccc1Oc1cncc(F)c1` [Compound 51], under setting [1], the IC50 turned out to be 3.37 nM.

Take `Cc1cc(Nc2ncnc3cc4c(nc23)N2CCN(C(=O)/C=C/CN(C)C)[C@H](CO4)C2)ccc1Oc1ccn2ncnc2c1` [Compound 10, (E)-1-((10S)-4-((4-([1,2,4]triazolo[1,5-a]pyridin-7-yloxy)-3-methylphenyl)amino)-7,8,10,11-tetrahydro-9H-6,10-methanopyrimido[4′,5′:5,6]pyrido[3,2-b][1,4,7]oxadiazonin-9-yl)-4-(dimethylamino)but-2-en-1-one]: the IC50 under setting [1] is 7.02 nM.

Consider `Cc1c(Oc2ccn3ncnc3c2)ccc(Nc2ncnc3cc4c(nc23)N2CCN(C(=O)/C=C/CN(C)C)[C@H](CO4)C2)c1F` [Compound 35, (E)-1-((10S)-4-((4-([1,2,4]triazolo[1,5-a]pyridin-7-yloxy)-2-fluoro-3-methylphenyl)amino)-7,8,10,11-tetrahydro-9H-6,10-methanopyrimido[4′,5′:5,6]pyrido[3,2-b][1,4,7]oxadiazonin-9-yl)-4-(dimethylamino)but-2-en-1-one], for which the IC50 under setting [1] is 1.29 nM.

For the compound `CN(C)C/C=C/C(=O)N1CCN2C[C@H]1COc1cc3ncnc(Nc4cc(F)c(Oc5ccn6ncnc6c5)cc4F)c3nc12` [Compound 48, (E)-1-((10S)-4-((4-([1,2,4]triazolo[1,5-a]pyridin-7-yloxy)-2,5-difluorophenyl)amino)-7,8,10,11-tetrahydro-9H-6,10-methanopyrimido[4′,5′:5,6]pyrido[3,2-b][1,4,7]oxadiazonin-9-yl)-4-(dimethylamino)but-2-en-1-one], the IC50 under setting [2] is 4.85 nM.

In the case of `Cc1cc(Nc2ncnc3cc4c(nc23)N2CCN(C(=O)/C=C/[C@H](C)N(C)C)[C@H](CO4)C2)c(F)cc1Oc1ccn2ncnc2c1` [Compound 47, (4S,E)-1-((10S)-4-((4-([1,2,4]triazolo[1,5-a]pyridin-7-yloxy)-2-fluoro-5-methylphenyl)amino)-7,8,10,11-tetrahydro-9H-6,10-methanopyrimido[4′,5′:5,6]pyrido[3,2-b][1,4,7]oxadiazonin-9-yl)-4-(dimethylamino)pent-2-en-1-one], under setting [1], the IC50 came out at 13 nM.

For the compound `Cc1cc(Nc2ncnc3cc4c(nc23)N2CCN(C(=O)/C=C/CN(C)C)[C@@H](CO4)C2)ccc1Oc1ccn2ncnc2c1` [Compound 15, (E)-1-((10R)-4-((4-([1,2,4]triazolo[1,5-a]pyridin-7-yloxy)-3-methylphenyl)amino)-7,8,10,11-tetrahydro-9H-6,10-methanopyrimido[4′,5′:5,6]pyrido[3,2-b][1,4,7]oxadiazonin-9-yl)-4-(dimethylamino)but-2-en-1-one], the IC50 under setting [1] is 82.3 nM.

In the case of `Cc1cc(Nc2ncnc3cc4c(nc23)N2CCN(C(=O)/C=C/CN(C)C)[C@H](CO4)C2)c(F)cc1Oc1cncc(F)c1` [Compound 44], under setting [1], the IC50 was 9.18 nM.

With `Cc1cc(Nc2ncnc3cc4c(nc23)N2CCN(C(=O)/C=C/[C@H]3CCCN3C)[C@H](CO4)C2)c(F)cc1Oc1ccn2ncnc2c1` [Compound 41, (E)-1-((10S)-4-((4-([1,2,4]triazolo[1,5-a]pyridin-7-yloxy)-2-fluoro-5-methylphenyl)amino)-7,8,10,11-tetrahydro-9H-6,10-methanopyrimido[4′,5′:5,6]pyrido[3,2-b][1,4,7]oxadiazonin-9-yl)-34-((R)-1-methylpyrrolidin-2-yl)prop-2-en-1-one], under setting [1], the IC50 turned out to be 8.67 nM.
